How the values were obtained:
Type in all cases: functional
PC-3 [1] = experiment: Growth inhibition of human PC3 cells assessed as cell growth at 5X10'-8 M after 48 hrs by sulforhodamine B assay; settings: PC-3, 48 h, read-out: Activity
OVCAR-4 = experiment: Growth inhibition of human OVCAR4 cells assessed as cell growth at 5X10'-7 M after 48 hrs by sulforhodamine B assay; settings: OVCAR-4, 48 h, read-out: Activity
OVCAR-3 = experiment: Growth inhibition of human OVCAR3 cells assessed as cell growth at 5X10'-7 M after 48 hrs by sulforhodamine B assay; settings: OVCAR-3, 48 h, read-out: Activity
PC-3 [2] = experiment: Growth inhibition of human PC3 cells assessed as cell growth at 5X10'-5 M after 48 hrs by sulforhodamine B assay; settings: PC-3, 48 h, read-out: Activity
HOP-62 [3] = experiment: Growth inhibition of human HOP62 cells assessed as cell growth at 5X10'-5 M after 48 hrs by sulforhodamine B assay; settings: HOP-62, 48 h, read-out: Activity
A498 [4] = experiment: Growth inhibition of human A498 cells assessed as cell growth at 5X10'-8 M after 48 hrs by sulforhodamine B assay; settings: A498, 48 h, read-out: Activity
NCI-H226 [5] = experiment: Growth inhibition of human NCI-H226 cells assessed as cell growth at 5X10'-7 M after 48 hrs by sulforhodamine B assay; settings: NCI-H226, 48 h, read-out: Activity
HCT-116 [6] = experiment: Growth inhibition of human HCT116 cells assessed as cell growth at 5X10'-7 M after 48 hrs by sulforhodamine B assay; settings: HCT-116, 48 h, read-out: Activity
RPMI-8226 = experiment: Growth inhibition of human RPMI8226 cells assessed as cell growth at 5X10'-6 M after 48 hrs by sulforhodamine B assay; settings: RPMI-8226, 48 h, read-out: Activity
786-0 = experiment: Growth inhibition of human 786-0 cells assessed as cell growth at 5X10'-5 M after 48 hrs by sulforhodamine B assay; settings: 786-0, 48 h, read-out: Activity
[7] = Growth inhibition of human NCI-ADR-RES cells assessed as cell growth at 5X10'-9 M after 48 hrs by sulforhodamine B assay; settings: read-out: Activity
SF-268 = experiment: Growth inhibition of human SF268 cells assessed as cell growth at 5X10'-7 M after 48 hrs by sulforhodamine B assay; settings: SF-268, 48 h, read-out: Activity
SK-MEL-2 = experiment: Growth inhibition of human SK-MEL-2 cells assessed as cell growth at 5X10'-8 M after 48 hrs by sulforhodamine B assay; settings: SK-MEL-2, 48 h, read-out: Activity
NCI-H226 [8] = experiment: Growth inhibition of human NCI-H226 cells assessed as cell growth at 5X10'-9 M after 48 hrs by sulforhodamine B assay; settings: NCI-H226, 48 h, read-out: Activity
M14 [9] = experiment: Growth inhibition of human M14 cells assessed as cell growth at 5X10'-7 M after 48 hrs by sulforhodamine B assay; settings: M14, 48 h, read-out: Activity
DU-145 = experiment: Growth inhibition of human DU145 cells assessed as cell growth at 5X10'-9 M after 48 hrs by sulforhodamine B assay; settings: DU-145, 48 h, read-out: Activity
TK-10 = experiment: Growth inhibition of human TK10 cells assessed as cell growth at 5X10'-6 M after 48 hrs by sulforhodamine B assay; settings: TK-10, 48 h, read-out: Activity
HOP-62 [10] = experiment: Growth inhibition of human HOP62 cells assessed as cell growth at 5X10'-9 M after 48 hrs by sulforhodamine B assay; settings: HOP-62, 48 h, read-out: Activity
LOX IMVI = experiment: Growth inhibition of human LOXIMVI cells assessed as cell growth at 5X10'-9 M after 48 hrs by sulforhodamine B assay; settings: read-out: Activity
CAKI-1 [11] = experiment: Growth inhibition of human CAKI-1 cells assessed as cell growth at 5X10'-5 M after 48 hrs by sulforhodamine B assay; settings: CAKI-1, 48 h, read-out: Activity
A498 [12] = experiment: Growth inhibition of human A498 cells assessed as cell growth at 5X10'-5 M after 48 hrs by sulforhodamine B assay; settings: A498, 48 h, read-out: Activity
BT-549 = experiment: Growth inhibition of human BT549 cells assessed as cell growth at 5X10'-5 M after 48 hrs by sulforhodamine B assay; settings: BT-549, 48 h, read-out: Activity
SK-OV-3 = experiment: Growth inhibition of human SKOV3 cells assessed as cell growth at 5X10'-8 M after 48 hrs by sulforhodamine B assay; settings: SK-OV-3, 48 h, read-out: Activity
ACHN = experiment: Growth inhibition of human ACHN cells assessed as cell growth at 5X10'-9 M after 48 hrs by sulforhodamine B assay; settings: read-out: Activity
SN12C = experiment: Growth inhibition of human SN12C cells assessed as cell growth at 5X10'-6 M after 48 hrs by sulforhodamine B assay; settings: read-out: Activity
[13] = Growth inhibition of human HCC2998 cells assessed as cell growth at 5X10'-6 M after 48 hrs by sulforhodamine B assay; settings: HCC 2998, 48 h, read-out: Activity
HCT-116 [14] = experiment: Growth inhibition of human HCT116 cells assessed as cell growth at 5X10'-6 M after 48 hrs by sulforhodamine B assay; settings: HCT-116, 48 h, read-out: Activity
HL-60(TB) = experiment: Growth inhibition of human HL-60(TB) cells assessed as cell growth at 5X10'-5 M after 48 hrs by sulforhodamine B assay; settings: HL-60, 48 h, read-out: Activity
COLO 205 = experiment: Growth inhibition of human COLO205 cells assessed as cell growth at 5X10'-6 M after 48 hrs by sulforhodamine B assay; settings: COLO 205, 48 h, read-out: Activity
M14 [15] = experiment: Growth inhibition of human M14 cells assessed as cell growth at 5X10'-8 M after 48 hrs by sulforhodamine B assay; settings: M14, 48 h, read-out: Activity
[16] = Growth inhibition of human Hs 578T cells assessed as cell growth at 5X10'-5 M after 48 hrs by sulforhodamine B assay; settings: read-out: Activity
MOLT-4 = experiment: Growth inhibition of human MOLT4 cells assessed as cell growth at 5X10'-5 M after 48 hrs by sulforhodamine B assay; settings: MOLT-4, 48 h, read-out: Activity
T47D = experiment: Growth inhibition of human T47D cells assessed as cell growth at 5X10'-7 M after 48 hrs by sulforhodamine B assay; settings: read-out: Activity
CAKI-1 [17] = experiment: Growth inhibition of human CAKI-1 cells assessed as cell growth at 5X10'-8 M after 48 hrs by sulforhodamine B assay; settings: CAKI-1, 48 h, read-out: Activity
KM12 = experiment: Growth inhibition of human KM12 cells assessed as cell growth at 5X10'-9 M after 48 hrs by sulforhodamine B assay; settings: KM12, 48 h, read-out: Activity
SK-MEL-28 = experiment: Growth inhibition of human SK-MEL-28 cells assessed as cell growth at 5X10'-6 M after 48 hrs by sulforhodamine B assay; settings: SK-MEL-28, 48 h, read-out: Activity
SNB-19 = experiment: Growth inhibition of human SNB19 cells assessed as cell growth at 5X10'-5 M after 48 hrs by sulforhodamine B assay; settings: SNB-19, 48 h, read-out: Activity

| Compound | growth at 0.05 µM (PC-3 [1]) [%] | growth at 0.5 µM (OVCAR-4) [%] | growth at 0.5 µM (OVCAR-3) [%] | growth at 50 µM (PC-3 [2]) [%] | growth at 50 µM (HOP-62 [3]) [%] | growth at 0.05 µM (A498 [4]) [%] | growth at 0.5 µM (NCI-H226 [5]) [%] | growth at 0.5 µM (HCT-116 [6]) [%] | growth at 5 µM (RPMI-8226) [%] | growth at 50 µM (786-0) [%] | growth at 0.005 µM [7] [%] | growth at 0.5 µM (SF-268) [%] | growth at 0.05 µM (SK-MEL-2) [%] | growth at 0.005 µM (NCI-H226 [8]) [%] | growth at 0.5 µM (M14 [9]) [%] | growth at 0.005 µM (DU-145) [%] | growth at 5 µM (TK-10) [%] | growth at 0.005 µM (HOP-62 [10]) [%] | growth at 0.005 µM (LOX IMVI) [%] | growth at 50 µM (CAKI-1 [11]) [%] | other results |
| --- | --- | --- | --- | --- | --- | --- | --- | --- | --- | --- | --- | --- | --- | --- | --- | --- | --- | --- | --- | --- | --- |
| COc1cc(-c2nn(-c3cccc(NC(=O)Nc4ccc(Cl)c(Cl)c4)c3)cc2-c2ccncc2)ccc1Cl | 95 | 81 | 64 | -22 | -9 | 89 | 82 | 78 | -10 | -20 | 104 | 89 | 112 | 98 | 78 | 103 | 11 | 93 | 97 | -13 | growth at 50 µM (A498 [12]): -11%; growth at 50 µM (BT-549): -3%; growth at 0.05 µM (SK-OV-3): 106%; growth at 0.005 µM (ACHN): 99%; growth at 5 µM (SN12C): 14%; growth at 5 µM [13]: 2%; growth at 5 µM (HCT-116 [14]): 6%; growth at 50 µM (HL-60(TB)): 3%; growth at 5 µM (COLO 205): -89%; growth at 0.05 µM (M14 [15]): 100%; growth at 50 µM [16]: 4%; growth at 50 µM (MOLT-4): -19%; growth at 0.5 µM (T47D): 84%; growth at 0.05 µM (CAKI-1 [17]): 93%; growth at 0.005 µM (KM12): 103%; growth at 5 µM (SK-MEL-28): 1%; growth at 50 µM (SNB-19): 15% |
| COc1cc(-c2nn(-c3cccc(NC(=O)c4cccc(C(F)(F)F)c4)c3)cc2-c2ccncc2)ccc1Cl | 99 | 81 | 98 | 14 | 51 | 80 | 84 | 92 | 12 | 3 | 96 | 88 | 97 | 95 | 91 | 98 | 36 | 95 | 94 | 17 | growth at 50 µM (A498 [12]): -28%; growth at 50 µM (BT-549): -1%; growth at 0.05 µM (SK-OV-3): 103%; growth at 0.005 µM (ACHN): 103%; growth at 5 µM (SN12C): 41%; growth at 5 µM [13]: 21%; growth at 5 µM (HCT-116 [14]): 12%; growth at 50 µM (HL-60(TB)): 5%; growth at 5 µM (COLO 205): 1%; growth at 0.05 µM (M14 [15]): 94%; growth at 50 µM [16]: 13%; growth at 50 µM (MOLT-4): 16%; growth at 0.5 µM (T47D): 84%; growth at 0.05 µM (CAKI-1 [17]): 98%; growth at 0.005 µM (KM12): 100%; growth at 5 µM (SK-MEL-28): 34%; growth at 50 µM (SNB-19): 28% |

— ChEMBL document CHEMBL2440076, “New triarylpyrazoles as broad-spectrum anticancer agents: design, synthesis, and biological evaluation” (Eur J Med Chem, 2013)
